What was measured:
[1] = system: ABUTH; assay: Pre-emergence herbicidal action against ABUTH; format: in vivo, Abutilon theophrasti; details: for Pre-emergence action against ABUTH (herbicidal activity) / pest or weed control at 80 g/ha: 80 g/ha, scored visually after 3 weeks vs untreated controls (100% = plants have died, 0% = like control plants); for pest or weed control at 80 g/ha: Abutilon theophrasti, 504 h
Procedure, shortened: (§1)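 Visual rating at 3 weeks vs untreated pots; 0–100% scale, 100% = plants died. Treatment: aqueous WP/EC spray onto covering soil, 600–800 l/ha, 0.2% wetter, seeds in sandy loam.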

[2] = system: ALOMY; assay: Pre-emergence herbicidal action against ALOMY; format: in vivo, Alopecurus myosuroides; details: pre-emergence; for Pre-emergence action against ALOMY (herbicidal activity) / pest or weed control at 80 g/ha: 80 g/ha, scored visually after 3 weeks vs untreated controls (100% = plants have died, 0% = like control plants); for pest or weed control at 80 g/ha / pest or weed control at 20 g/ha: Alopecurus myosuroides, 504 h; for pest or weed control at 20 g/ha: scored visually after 3 weeks, 100% = plants have died, 0% = like control plants
Procedure, shortened: as §1

[3] = system: AMARE; assay: Pre-emergence herbicidal action against AMARE; format: in vivo, Amaranthus retroflexus; details: for pest or weed control at 20 g/ha / pest or weed control at 80 g/ha: Amaranthus retroflexus, 504 h
Procedure, shortened: as §1

[4] = system: ECHCG; assay: Pre-emergence herbicidal action against ECHCG; format: in vivo, Echinochloa crus-galli; details: 80 g/ha; for pest or weed control at 80 g/ha: Echinochloa crus-galli, 504 h
Procedure, shortened: as §1

[5] = system: MATIN; assay: Pre-emergence herbicidal action against MATIN; format: in vivo, Matricaria inodora; details: for pest or weed control at 20 g/ha / pest or weed control at 80 g/ha: Tripleurospermum inodorum, 504 h
Procedure, shortened: as §1

[6] = system: SETVI; assay: Pre-emergence herbicidal action against SETVI; format: in vivo, Setaria viridis; details: dosage 80 g/ha
Procedure, shortened: as §1

[7] = system: VERPE; assay: Pre-emergence herbicidal action against VERPE; format: in vivo, Veronica persica
Procedure, shortened: as §1

[8] = system: VIOTR; assay: Pre-emergence herbicidal action against VIOTR; format: in vivo, Viola tricolor
Procedure, shortened: as §1

[9] = system: ABUTH; assay: Post-emergence herbicidal action against ABUTH; format: in vivo, Abutilon theophrasti; details: visual assessment about 3 weeks after treatment vs untreated controls
Procedure, shortened: (§2)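 Greenhouse pot plants in sandy loam were sprayed at the one-leaf stage, 2 to 3 weeks after sowing, with WP or EC formulations as aqueous suspension or emulsion (600 to 800 l/ha water, 0.2% wetting agent). About 3 weeks later, damage was scored visually against untreated controls as % action (100% = dead, 0% = like control).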

[10] = system: ALOMY; assay: Post-emergence herbicidal action against ALOMY; format: in vivo, Alopecurus myosuroides; details: visual assessment about 3 weeks after treatment vs untreated controls
Procedure, shortened: as §2

[11] = system: AMARE; assay: Post-emergence herbicidal action against AMARE; format: in vivo, Amaranthus retroflexus; details: 20 g/ha, visual assessment about 3 weeks after treatment, 100% = plants have died, 0% = like control plants; for pest or weed control at 20 g/ha: Amaranthus retroflexus, 504 h
Procedure, shortened: as §2

[12] = system: ECHCG; assay: Post-emergence herbicidal action against ECHCG; format: in vivo, Echinochloa crus-galli; details: dosage 20 g/ha
Procedure, shortened: as §2

[13] = system: MATIN; assay: Post-emergence herbicidal action against MATIN; format: in vivo, Matricaria inodora; details: dosage 20 g/ha
Procedure, shortened: as §2

[14] = system: PHBPU; assay: Post-emergence herbicidal action against PHBPU; format: in vivo, Pharbitis purpurea; details: for Post-emergence action against PHBPU in % / pest or weed control at 20 g/ha: dosage 20 g/ha
Procedure, shortened: as §2

[15] = system: SETVI; assay: Post-emergence herbicidal action against SETVI; format: in vivo, Setaria viridis; details: for pest or weed control at 5 g/ha / pest or weed control at 20 g/ha: Setaria viridis, 504 h
Procedure, shortened: as §2

[16] = system: VERPE; assay: Post-emergence herbicidal action against VERPE; format: in vivo, Veronica persica; details: 20 g/ha; for pest or weed control at 20 g/ha: Veronica persica, 504 h
Description: Seeds of monocotyledonous and dicotyledonous weed and crop plants are laid out in sandy loam soil in wood-fiber pots, covered with soil and cultivated in a greenhouse under good growth conditions. 2 to 3 weeks after sowing, the test plants are treated at the one-leaf stage. The compounds of the invention, formulated in the form of wettable powders (WP) or as emulsion concentrates (EC), are then sprayed onto the green parts of the plants in the form of an aqueous suspension or emulsion at a water application rate equivalent to 600 to 800 l/ha, with addition of 0.2% wetting agent. After the test plants have been left to stand in the greenhouse under optimal growth conditions for about 3 weeks, the action of the preparations is assessed visually in comparison to untreated controls (herbicidal action in percent (%): 100% activity=the plants have died, 0% activity=like control plants). […] The tables below illustrate, in an illustrative manner, the post-emergence herbicidal action of the compounds of the invention, the herbicidal activity being stated in percent.

[17] = system: VIOTR; assay: Post-emergence herbicidal action against VIOTR; format: in vivo, Viola tricolor; details: for pest or weed control at 20 g/ha: Viola tricolor, 504 h
Procedure, shortened: as §2

[18] = system: AVEFA; assay: Pre-emergence herbicidal action against AVEFA; format: in vivo, Avena fatua; details: 80 g/ha, pre-emergence; for pest or weed control at 80 g/ha: Avena fatua, 504 h
Procedure, shortened: as §1

[19] = system: DIGSA; assay: Pre-emergence herbicidal action against DIGSA; format: in vivo, Digitaria sanguinalis; details: Digitaria sanguinalis, 504 h
Procedure, shortened: as §1

[20] = system: DIGSA; assay: Post-emergence herbicidal action against DIGSA; format: in vivo, Digitaria sanguinalis; details: Digitaria sanguinalis, 504 h
Procedure, shortened: as §2

[21] = 20 g/ha, scored visually after 3 weeks vs untreated controls, 100% = plants have died, 0% = like control plants
[22] = 80 g/ha, scored visually after 3 weeks vs untreated controls (100% = plants have died, 0% = like control plants)
[23] = 80 g/ha, scored visually after 3 weeks vs untreated controls, 100% = plants have died, 0% = like control plants
[24] = Viola tricolor, 504 h, dosage 80 g/ha
[25] = Alopecurus myosuroides, 504 h, dosage 20 g/ha
[26] = Abutilon theophrasti, 504 h, dosage 20 g/ha

CSc1c(C(=O)Nc2nnnn2C)ccc(C(F)F)c1C(=O)NCC1CC1 [Example 1-90]
80%: Pre-emergence action against ALOMY (herbicidal activity) [2] | Post-emergence action against ABUTH in % ([9]; dosage 5 g/ha) | Post-emergence action against ALOMY in % ([10]; dosage 20 g/ha) | Post-emergence action against MATIN in % [13] | Post-emergence action against VIOTR in % ([17]; 5 g/ha)
100%: Pre-emergence action against ABUTH (herbicidal activity) [1] | Pre-emergence action against ABUTH (herbicidal activity in percent) ([1]; dosage 20 g/ha, scored visually after 3 weeks vs untreated controls, 100% = plants have died, 0% = like control plants) | Pre-emergence action against AMARE in % [3, 21] | Pre-emergence action against AMARE in % [3, 22] | Pre-emergence action against ECHCG in % [4] | Pre-emergence action against MATIN in % ([5]; dosage 20 g/ha) | Pre-emergence action against MATIN in % ([5]; dosage 80 g/ha) | Pre-emergence action against SETVI in % [6] | Pre-emergence action against VIOTR in % ([8]; dosage 80 g/ha) | Post-emergence action at 20 g/ha against AMARE in % [11] | Post-emergence action against ECHCG in % [12] | Post-emergence action against VIOTR in % ([17]; 20 g/ha)
90%: Pre-emergence action against VERPE in % ([7]; dosage 80 g/ha) | Pre-emergence action against VIOTR in % ([8]; dosage 20 g/ha) | Post-emergence action against ABUTH in % ([9]; dosage 20 g/ha) | Post-emergence action against PHBPU in % [14] | Post-emergence action against SETVI in % ([15]; dosage 20 g/ha) | Post-emergence action against VERPE in % [16]

Cn1nnnc1NC(=O)c1ccc(C(F)(F)F)c(C(=O)NCC(F)(F)F)c1Cl [Example 1-133]
80%: pest or weed control at 20 g/ha ([14]; Ipomoea purpurea, 504 h) | pest or weed control at 20 g/ha ([17]; 20 g/ha)
100%: pest or weed control at 80 g/ha [1] | pest or weed control at 80 g/ha [3, 23] | pest or weed control at 80 g/ha [18] | pest or weed control at 80 g/ha [4] | pest or weed control at 80 g/ha ([5]; dosage 80 g/ha) | pest or weed control at 80 g/ha ([6]; Setaria viridis, 504 h) | pest or weed control at 20 g/ha ([8]; Viola tricolor, 504 h, dosage 20 g/ha) | pest or weed control at 80 g/ha [8, 24] | pest or weed control at 80 g/ha ([19]; dosage 80 g/ha) | pest or weed control at 20 g/ha [11] | pest or weed control at 20 g/ha ([15]; dosage 20 g/ha)
90%: pest or weed control at 80 g/ha [2] | pest or weed control at 20 g/ha [2] | pest or weed control at 20 g/ha [3, 21] | pest or weed control at 20 g/ha ([5]; dosage 20 g/ha) | pest or weed control at 20 g/ha ([19]; dosage 20 g/ha) | pest or weed control at 20 g/ha [10, 25] | pest or weed control at 5 g/ha ([15]; dosage 5 g/ha) | pest or weed control at 20 g/ha [16] | pest or weed control at 5 g/ha ([20]; 5 g/ha) | pest or weed control at 20 g/ha ([20]; 20 g/ha)

CNC(=O)c1c(Br)ccc(C(=O)Nc2nnnn2C)c1Br [Example 1-342]
80%: pest or weed control at 20 g/ha ([5]; dosage 20 g/ha) | pest or weed control at 20 g/ha ([12]; Echinochloa crus-galli, 504 h) | pest or weed control at 5 g/ha ([14]; Ipomoea purpurea, 504 h, dosage 5 g/ha) | pest or weed control at 20 g/ha [16] | pest or weed control at 20 g/ha ([17]; 20 g/ha)
100%: pest or weed control at 80 g/ha [2] | pest or weed control at 20 g/ha [3, 21] | pest or weed control at 80 g/ha [3, 23] | pest or weed control at 80 g/ha [18] | pest or weed control at 80 g/ha [4] | pest or weed control at 80 g/ha ([5]; dosage 80 g/ha) | pest or weed control at 20 g/ha [10, 25] | pest or weed control at 20 g/ha [11]
90%: pest or weed control at 20 g/ha [2] | pest or weed control at 5 g/ha ([9]; Abutilon theophrasti, 504 h, dosage 5 g/ha) | pest or weed control at 20 g/ha [9, 26] | pest or weed control at 5 g/ha ([10]; Alopecurus myosuroides, 504 h, dosage 5 g/ha) | pest or weed control at 20 g/ha ([14]; Ipomoea purpurea, 504 h) | pest or weed control at 5 g/ha ([15]; dosage 5 g/ha) | pest or weed control at 20 g/ha ([15]; dosage 20 g/ha)

COc1ccc(C(=O)Nc2nnnn2C)c(Cl)c1C(=O)NC1CC1 [Example 1-356]
100%: pest or weed control at 80 g/ha [1] | pest or weed control at 80 g/ha [2] | pest or weed control at 20 g/ha [3, 21] | pest or weed control at 80 g/ha [3, 23] | pest or weed control at 80 g/ha ([5]; dosage 80 g/ha) | pest or weed control at 20 g/ha ([7]; Veronica persica, 504 h, dosage 20 g/ha) | pest or weed control at 80 g/ha ([7]; Veronica persica, 504 h, dosage 80 g/ha) | pest or weed control at 80 g/ha [8, 24] | pest or weed control at 20 g/ha [9, 26] | pest or weed control at 20 g/ha [11]
80%: pest or weed control at 20 g/ha [10, 25] | pest or weed control at 20 g/ha ([14]; Ipomoea purpurea, 504 h)
90%: pest or weed control at 20 g/ha [16] | pest or weed control at 20 g/ha ([17]; 20 g/ha)

CCn1nnnc1NC(=O)c1ccc(OC)c(C(=O)NC)c1Cl [Example 2-352]
80%: Pre-emergence action against AVEFA in % [18] | Pre-emergence action against ECHCG in % [4] | Pre-emergence action against VIOTR in % ([8]; dosage 20 g/ha) | Pre-emergence action against VIOTR in % ([8]; dosage 80 g/ha) | Post-emergence action against ABUTH in % ([9]; dosage 20 g/ha) | Post-emergence action against ALOMY in % ([10]; dosage 5 g/ha) | Post-emergence action against MATIN in % [13] | Post-emergence action against PHBPU in % [14] | Post-emergence action against SETVI in % ([15]; dosage 5 g/ha) | Post-emergence action against SETVI in % ([15]; dosage 20 g/ha)
100%: Pre-emergence action against ABUTH (herbicidal activity) [1] | Pre-emergence action against AMARE in % [3, 21] | Pre-emergence action against AMARE in % [3, 22] | Pre-emergence action against SETVI in % [6] | Post-emergence action at 20 g/ha against AMARE in % [11]
90%: Pre-emergence action against ALOMY (herbicidal activity) [2] | Pre-emergence action against MATIN in % ([5]; dosage 20 g/ha) | Pre-emergence action against MATIN in % ([5]; dosage 80 g/ha) | Post-emergence action against ALOMY in % ([10]; dosage 20 g/ha) | Post-emergence action against ECHCG in % [12] | Post-emergence action against VERPE in % [16] | Post-emergence action against VIOTR in % ([17]; 20 g/ha)
